Experimental data reported in ChEMBL document CHEMBL5608241, “Discovery of Novel Non-nucleoside DOT1LR231Q Inhibitors with Improved Pharmacokinetic Properties and Anti-lung Cancer Efficacy” (J Med Chem, 2024).

Tested on: NCI-H460
Test: Antitumor activity against human NCI-H460 cells harboring DOT1L R231Q mutant xenografted in male BALB/c-nu mouse model assessed as tumor growth inhibition at 20 mg/kg, ip administered five times a week for 3 weeks relative to control
Type: functional
Settings: NCI-H460, 504 h, read-out: TGI

## CC(C)(C)c1ccc(NC(=O)NCCCN(CCCN2CCOCC2)CC2(O)CCN(c3nc(Cl)nc4sccc34)C2)cc1 (stereo unspecified)
  inhibition in vivo at 20 mg/kg: 60.6%
